According to patent publication US6767569B1, “Surface decontamination of cooked sausage and processed meat and poultry products” (priority 1999, dated 2004):
Values joined by “and” are separate entries in the source; they are usually repeats but may differ in a detail not shown here. Equal values may be shown once.

Tests used:
Format in all cases: cell-based
Salmonella spp. [1] = settings: 35 °C, 24 hrs
Description: Each strain was subcultured on tryptic soy agar (TSA, DIFCO, Detroit, Mich.) slants and stored at 4° C. Strains were individually transferred into 100 mL of sterile 2× BHI (DIFCO, Detroit, Mich.) and incubated at 35° C. for 24 hr. to reach ca. 10^9 colony forming units/mL (CFU/mL). Then, 25 mL of each strain of E. coli was transferred into a sterile bottle (mixture X), and 25 mL of each strain of each strain of Salmonella spp. was transferred into a sterile bottle (mixture Y). Mixtures X and Y were maintained separately throughout the test.
Serial dilutions were made using Butterfields' Phosphate Buffer (BPB, Sigma, St. Louis, Mo.) in 1 mL aliquots prior to inoculation. BPB was prepared as a stock solution by adding 34 g Of KH2PO4 to 500 mL of distilled water. The pH was adjusted to 7.2, and the solution was brought to a volume of 1 L. The BPB stock was autoclaved for 20 min. at 121° C. and 15 lbs. of pressure. […] For glacial acetic acid (U.S.P.-F.C.C., J. T. Baker, Phillipsburg, N.J.), starting concentrations and serial dilutions were 50%, 25%, 12.5%, 6.25%, 3.12%, 1.56%, 0.78%, 0.39%, and a control (no treatment, buffer and culture). […] For peracetic acid 35.0% (STERIS 20™, STERIS Corporation, Mentor, Ohio), starting concentrations and serial dilutions were 17.5%, 8.75%, 4.38%, 2.19%, 1.09%, 0.55%, 0.30%, 0.14%, 0.07%, 0.03%, and a control. For liquid smoke (Hickory Specialties, Brentwood, Tenn.) starting concentrations and serial dilutions were 50%, 25%, 12.5%, 6.25%, 3.12%, 1.56%, 0.78%, 0.39%, and a control. Dilutions were prepared with deionized water.
The test tubes were incubated at 35° C. for 24 hrs. and turbidity was evaluated using McFarland equivalence standards, to study the bacteriostatic properties of the diluted solutions. In addition, each dilution was plated to evaluate the bactericidal properties of, the diluted solutions. Using a 1 μL sterile loop, each concentration and control for either microorganism mixture was streaked on plate count agar (PCA, DIFCO, Detroit, Mich.). A selective agar was also used for each mixture, eosine methylene blue agar (EMB, DIFCO, Detroit, Mich.) for E. coli and xylose lysine decarboxylase agar (XLD, DIFCO, Detroit,Mich.) for Salmonella spp. All plates were incubated for 24 hrs. at 35° C. and were inspected for growth or no growth.

E. coli = settings: 5 seconds spray
Description: (§1) Samples of pork skin were inoculated separately with either 5 strains of E. coli or 5 strains of Salmonella spp. (mixtures X and Y, see Example 4). Five different treatments were evaluated for effectiveness in reducing bacteria on pork skin. […] EMB agar was used for E. coli and XLD for Salmonella, and a nutrient agar was also used for E. coli and Salmonella for total count.
(§2) The five strains of generic E. coli and five strains of Salmonella spp. were cultured and transferred individually into 100 mL of tryptic soy broth (TSB, DIFCO, Detroit, Mich.) with 1% dextrose (Sigma, St. Louis, Mo.) in duplicate. Dextrose was added to induce acid tolerance in the microbial cell. The cultures were incubated at 35° C. for 24 hrs. to obtain ca. 10^9 colony forming units (CFU)/mL. The cells were harvested by the centrifuging each culture at 10,000 Xg force for 10 min. at 4° C., (Beckman J2-HS centrifuge, Beckman Instruments, Inc., Palo Alto, Calif.). After centrifugation, the supernatant was poured off, and cells remained in pellet form. Each pellet was individually re-suspended with 50 mL of 0.1% peptonewater (DIFCO, Detroit, Mich.). All five strains of E. coli or Salmonella spp. inoculum were transferred to separate HDPE plastic spray bottles (Sprayco™, Detroit, Mich.) to be used in the mist inoculation of pork skin samples.
(§3) For E. coli, PCA and EMB media were used, and for Salmonella, PCA and XLD media were used. Bacto Plate Count Agar (PCA) was used in this study as a standard methods medium for the enumeration of bacteria before and after treatments. Spiral (sl), or spread (sd) plate technique were used for viable cell counts. Duplicate plates were performed for each treatment.
(§4) Fresh pork skins taken from the loin region were cut to rectangles of 19.35 cm^2. A hole was bored into the top of each sample so that each sample could be suspended from an individual hook in the spray cabinet. Samples were laid out onto trays wrapped in butcher paper. Each tray was individually spray inoculated with E. coli or Salmonella spp. in a Plexiglas spray chamber to ca. 8.4 mL of inoculum. After the inoculation, each tray was placed under a laminar flow hood for 1 hr. to allow the surface to dry and for the attachment of the bacteria to the pork skin.
(§5) The peracetic acid (PAA) used in this study was a 35.0% PAA buffered, liquid solution prepared from a STERIS 20™ two compartment cup (a dry powder containing anticorrosive additives, buffers, sequestrants, and surfactants). The peracetic acid determined before each use of the treatment using a calibration curve.
(§6) Five inoculated samples were individually placed on stainless steel hooks in. a spray cabinet at ambient temperature.
(§7) The samples were exposed to a continuous spray of the selected treatment for 5 seconds at a spray pressure of 16-18 psi.
(§8) The treated samples were placed into individual stomacher bags containing 30 mL of 0.1% peptone water (DIFCO, Detroit, Mich.) and stomached for 2 min. Serial dilutions of 0, 10^−2, and 10^−4 were spiral plated (WASP spiral plater, Bioscience International, Rockville, Md.) on PCA (DIFCO, Detroit, Mich.) and EMB (DIFCO, Detroit, Mich.) for E. coli and on plate count agar (PCA, DIFCO, Detroit, Mich.) and xylose lysine decarboxylase agar (XLD, DIFCO, Detroit, Mich.) for Salmonella spp. Samples were also spread plated on PCA and EMB agar for E. coli or PCA and XLD agar for Salmonella spp, using […] for a total of 1 mL on 4 plates. This was to ensure a countable plate. Plates were inverted and incubated at 35° C. for 24 hrs. (48 hrs. for Salmonella spp.).

Salmonella spp. [2] = settings: pork skin; 5 seconds spray; 2% lactic acid, 2% acetic acid, 0.1% peracetic acid; after 48 hours
Description: as §1, §2, §3, §4, §5, §6, §7, §8

microorganism = assay: Contacting the surfaces of the food product with peracetic acid solution; settings: 1,000 ppm peracetic acid solution for 12 seconds at 8 °C
Text: The decontaminant solution preferably contains from about 500 to about 4,000 ppm of peracetic acid. The optimal concentration depends an the length of time to which the food products are exposed to the decontaminant solution and on the temperature of the decontaminant solution. […] For ensuring complete elimination of resistant microorganisms, such as Listeria, longer times and/or higher peracetic acid concentrations are preferred. Preferred peracetic acid concentrations are from about 1000 to about 2,000 ppm for contact times of 30 seconds to 1 minute to ensure complete kill of Listeria and other undesirable microorganisms at temperatures of from about 8-20° C. Microbiological analysis procedures are carried out periodically on samples of the treated frankfurters to ensure that the conditions used are maintaining a 100% kill of Listeria or other selected microorganisms.

[3] = pork skin, 2% lactic acid, 2% acetic acid, 0.1% peracetic acid, after 24 hours

CC(=O)OO [peracetic acid]
MIC (%) (Salmonella spp. [1]): 0.137% and 0.14%
reduction of E. coli on pork skin (E. coli; peracetic acid 0.1%): 3 log/cm^2
Total Count (E. coli) on EMB (E. coli; [3]): 3.04 Log CFU/cm^2
Total Count (E. coli) on PCA (E. coli; [3]): 3.28 Log CFU/cm^2
Total Count (Salmonella) on PCA (Salmonella spp. [2]): 5.34 Log CFU/cm^2
Total Count (Salmonella) on XLD (Salmonella spp. [2]): 3.83 Log CFU/cm^2
reduction in the number of microorganism (microorganism): six log reduction
